Like-named read-outs stand apart in the source and are kept apart here.
Experiments:
Type in all cases: in vivo
[1] = test system: nightshade (eastern black nightshade, Solanum ptycanthum); assay: Test C pre-/postemergence: nightshade; conditions: Preemergence
Text: Seeds of plant species selected from blackgrass (Alopecurus myosuroides), bromegrass, downy (downy bromegrass, Bromus tectorum), foxtail, green (green foxtail, Setaria viridis), ryegrass, Italian (Italian ryegrass, Lolium multiflorum), winter wheat (Triticum aestivum), wild oat (Avena fatua), galium (catchweed bedstraw, Galium aparine), bermudagrass (Cynodon dactylon), surinam grass (Brachiaria decumbens), cocklebur (common cocklebur, Xanthium strumarium), corn (Zea mays), large crabgrass (Digitaria sanguinalis), woolly cupgrass (Eriochloa villosa), foxtail, giant (giant foxtail, Setaria faberii), goosegrass (Eleusine indica), johnsongrass (Sorghum halepense), kochia (Kochia scoparia), lambsquarters (Chenopodium album), morningglory (Ipomoea coccinea), nightshade (eastern black nightshade, Solanum ptycanthum), nutsedge, yellow (yellow nutsedge, Cyperus esculentus), pigweed (Amaranthus retroflexus), ragweed (common ragweed, Ambrosia elation), soybean (Glycine max), common (oilseed) sunflower (Helianthus annuus), Russian thistle (Salsola kali) and velvetleaf (Abutilon theophrasti) were planted into a blend of loam soil and sand and treated preemergence with test chemicals formulated in a non-phytotoxic solvent mixture which included a surfactant.
At the same time, plants selected from these crop and weed species and also barley (winter barley, Hordeum vulgare), canarygrass (Phalaris minor), chickweed (common chickweed, Stellaria media) windgrass (Apera spica-venti) and deadnettle (henbit deadnettle, Lamium amplexicaule) were planted in pots containing Redi-Earth® planting medium (Scotts Company, 14111 Scottslawn Road, Marysville, Ohio 43041) comprising spaghnum peat moss, vermiculite, wetting agent and starter nutrients and treated with postemergence applications of test chemicals formulated in the same manner. Plants ranged in height from 2 to 18 cm (1- to 4-leaf stage) for postemergence treatments.
Treated plants and controls were maintained in a greenhouse for 13 to 15 days, after which time all species were compared to controls and visually evaluated. Plant response ratings, summarized in Table C, are based on a scale of 0 to 100 where 0 is no effect and 100 is complete control. A dash (-) response means no test result.

[2] = test system: wild oat (Avena fatua); assay: Test C pre-/postemergence: wild oat
Outline: (§1)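 Visual injury scored 0–100 (100 = complete control) against untreated controls after 13–15 greenhouse days. Surfactant-containing solvent formulations applied either to soil after sowing (loam/sand) or over 1- to 4-leaf plants, 2–18 cm tall.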

[3] = test system: velvetleaf (Abutilon theophrasti); assay: Test A pre-/postemergence: velvetleaf; conditions: Abutilon theophrasti, 240 h; for pest or weed control at 125 g/ha: 125 g ai/ha; for pest or weed control at 500 g/ha: 500 g ai/ha
Outline: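 Soil medium was loam blended with sand; treatments pre- and postemergence were applied concurrently, postemergence at one- to two-leaf stage. Approximately ten days in greenhouse preceded visual comparison with untreated controls, scored 0 (no effect) to 100 (complete control).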

[4] = test system: winter wheat (Triticum aestivum); assay: Test C pre-/postemergence: winter wheat
Outline: as §1

[5] = test system: foxtail, green (green foxtail, Setaria viridis); assay: Test C pre-/postemergence: foxtail, green
Outline: as §1

[6] = test system: pigweed (Amaranthus retroflexus); assay: Test C pre-/postemergence: pigweed
Outline: as §1

[7] = test system: velvetleaf (Abutilon theophrasti); assay: Test C pre-/postemergence: velvetleaf
Outline: as §1

[8] = test system: galium (catchweed bedstraw, Galium aparine); assay: Test C pre-/postemergence: galium
Outline: as §1

[9] = 31 g ai/ha, scale of 0 to 100, 0 is no effect, 100 is complete control
[10] = 62 g ai/ha, scale of 0 to 100, 0 is no effect, 100 is complete control
[11] = 125 g ai/ha, scale 0 to 100, 0 no effect, 100 complete control
[12] = Postemergence, 31 g ai/ha, scale 0 to 100 (0 no effect, 100 complete control)
[13] = Postemergence, 62 g ai/ha, scale 0 to 100 (0 no effect, 100 complete control)
[14] = Postemergence, 125 g ai/ha, scale 0 to 100, 0 no effect, 100 complete control
[15] = Postemergence, 250 g ai/ha, scale 0 to 100
[16] = Preemergence, 31 g ai/ha, scale of 0 to 100, 0 is no effect, 100 is complete control
[17] = Preemergence, 62 g ai/ha, scale of 0 to 100, 0 is no effect, 100 is complete control
[18] = Preemergence, 125 g ai/ha, scale 0 to 100, 0 no effect, 100 complete control
[19] = Preemergence, 250 g ai/ha, scale 0 to 100, 0 no effect, 100 complete control
[20] = post-emergence, Postemergence, 0 to 100 scale, 0 is no effect, 100 is complete control, read-out: Velvetleaf plant response rating
[21] = post-emergence, Postemergence, visual rating on 0 to 100 scale (0 no effect, 100 complete control), approximately ten days, read-out: Velvetleaf plant response rating
[22] = pre-emergence, Preemergence, 0 to 100 scale (0 no effect, 100 complete control), read-out: Plant response rating, Velvetleaf
[23] = pre-emergence, Preemergence, 0 to 100 scale, 0 is no effect, 100 is complete control, read-out: Plant response rating, Velvetleaf
[24] = Postemergence, 16 g ai/ha, scale 0 to 100, 0 no effect, 100 complete control
[25] = Preemergence, 16 g ai/ha, scale 0 (no effect) to 100 (complete control)

## FC(F)(F)COc1nn(-c2ccc(C(F)(F)F)cc2)nc1Cc1ccnc(C(F)(F)F)c1 [Compound 14, 4-[[5-(2,2,2-trifluoroethoxy)-2-[4-(trifluoromethyl)phenyl]-2H-1,2,3-triazol-4-yl]methyl]-2-(trifluoromethyl)pyridine]
[1]; [9]
  Plant response rating, Nightshade: 55
[1]; [10]
  Plant response rating, Nightshade: 80
[1]; [11]
  Plant response rating, Nightshade: 95
[1]; 250 g ai/ha, scale 0 to 100, 0 no effect, 100 complete control
  Plant response rating, Nightshade: 98
[2]; [12]
  Plant response rating, Oat, Wild: 25
[2]; [13]
  Plant response rating, Oat, Wild: 45
[2]; [14]
  Plant response rating, Oat, Wild: 50
[2]; [15]
  Plant response rating, Oat, Wild: 60
[2]; [16]
  Plant response rating, Oat, Wild: 20
[2]; [17]
  Plant response rating, Oat, Wild: 40
[2]; [18]
  Plant response rating, Oat, Wild: 70
[2]; [19]
  Plant response rating, Oat, Wild: 90
[3]; [20]
  pest or weed control at 125 g/ha: 100%
[3]; [21]
  pest or weed control at 500 g/ha: 100%
[3]; [22]
  pest or weed control at 125 g/ha: 70%
[3]; [23]
  pest or weed control at 500 g/ha: 90%
[4]; [12]
  Plant response rating, Wheat: 30
[4]; [13]
  Plant response rating, Wheat: 35
[4]; [14]
  Plant response rating, Wheat: 40
[4]; [15]
  Plant response rating, Wheat: 45
[4]; [16]
  Plant response rating, Wheat: 0
[4]; [17]
  Plant response rating, Wheat: 15
[4]; [18]
  Plant response rating, Wheat: 35
[4]; [19]
  Plant response rating, Wheat: 45
[5]; [12]
  Plant response rating, Foxtail, Green: 70
[5]; [14]
  Plant response rating, Foxtail, Green: 90
[5]; [15]
  Plant response rating, Foxtail, Green: 90
[5]; [16]
  Plant response rating, Foxtail, Green: 80
[5]; [17]
  Plant response rating, Foxtail, Green: 100
[5]; [18]
  Plant response rating, Foxtail, Green: 100
[5]; [19]
  Plant response rating, Foxtail, Green: 100
[6]; [12]
  Plant response rating, Pigweed: 45
[6]; [13]
  Plant response rating, Pigweed: 60
[6]; [14]
  Plant response rating, Pigweed: 80
[6]; [15]
  Plant response rating, Pigweed: 85
[6]; [16]
  Plant response rating, Pigweed: 100
[6]; [17]
  Plant response rating, Pigweed: 100
[6]; [18]
  Plant response rating, Pigweed: 100
[6]; [19]
  Plant response rating, Pigweed: 100
[7]; [12]
  Plant response rating, Velvetleaf: 75
[7]; [13]
  Plant response rating, Velvetleaf: 80
[7]; [14]
  Plant response rating, Velvetleaf: 85
[7]; [15]
  Plant response rating, Velvetleaf: 90
[7]; [16]
  Plant response rating, Velvetleaf: 10
[7]; [17]
  Plant response rating, Velvetleaf: 10
[7]; [18]
  Plant response rating, Velvetleaf: 70
[7]; [19]
  Plant response rating, Velvetleaf: 75
[8]; [12]
  Plant response rating, Galium: 60
[8]; [13]
  Plant response rating, Galium: 80
[8]; [14]
  Plant response rating, Galium: 80
[8]; [15]
  Plant response rating, Galium: 80
[8]; [16]
  Plant response rating, Galium: 20
[8]; [17]
  Plant response rating, Galium: 90
[8]; [18]
  Plant response rating, Galium: 100
[8]; [19]
  Plant response rating, Galium: 100

## COc1nn(-c2ccc(C(F)(F)F)cc2)nc1Cc1ccnc(C(F)(F)F)c1 [Compound 15, 4-[[5-methoxy-2-[4-(trifluoromethyl)phenyl]-2H-1,2,3-triazol-4-yl]methyl]-2-(trifluoromethyl)pyridine]
[1]; 16 g ai/ha, scale 0 (no effect) to 100 (complete control)
  Plant response rating, Nightshade: 10
[1]; [9]
  Plant response rating, Nightshade: 25
[1]; [10]
  Plant response rating, Nightshade: 85
[1]; [11]
  Plant response rating, Nightshade: 90
[2]; [24]
  Plant response rating, Oat, Wild: 40
[2]; [12]
  Plant response rating, Oat, Wild: 45
[2]; [13]
  Plant response rating, Oat, Wild: 55
[2]; [14]
  Plant response rating, Oat, Wild: 60
[2]; [25]
  Plant response rating, Oat, Wild: 35
[2]; [16]
  Plant response rating, Oat, Wild: 40
[2]; [17]
  Plant response rating, Oat, Wild: 70
[2]; [18]
  Plant response rating, Oat, Wild: 70
[3]; [20]
  pest or weed control at 125 g/ha: 100%
[3]; [21]
  pest or weed control at 500 g/ha: 100%
[3]; [22]
  pest or weed control at 125 g/ha: 70%
[3]; [23]
  pest or weed control at 500 g/ha: 80%
[4]; [24]
  Plant response rating, Wheat: 15
[4]; [12]
  Plant response rating, Wheat: 25
[4]; [13]
  Plant response rating, Wheat: 35
[4]; [14]
  Plant response rating, Wheat: 35
[4]; [25]
  Plant response rating, Wheat: 0
[4]; [16]
  Plant response rating, Wheat: 10
[4]; [17]
  Plant response rating, Wheat: 25
[4]; [18]
  Plant response rating, Wheat: 50
[5]; [24]
  Plant response rating, Foxtail, Green: 30
[5]; [12]
  Plant response rating, Foxtail, Green: 40
[5]; [13]
  Plant response rating, Foxtail, Green: 85
[5]; [14]
  Plant response rating, Foxtail, Green: 85
[5]; [25]
  Plant response rating, Foxtail, Green: 95
[5]; [16]
  Plant response rating, Foxtail, Green: 95
[5]; [17]
  Plant response rating, Foxtail, Green: 100
[5]; [18]
  Plant response rating, Foxtail, Green: 100
[6]; [24]
  Plant response rating, Pigweed: 5
[6]; [12]
  Plant response rating, Pigweed: 60
[6]; [13]
  Plant response rating, Pigweed: 70
[6]; [14]
  Plant response rating, Pigweed: 90
[6]; [25]
  Plant response rating, Pigweed: 98
[6]; [16]
  Plant response rating, Pigweed: 100
[6]; [17]
  Plant response rating, Pigweed: 100
[6]; [18]
  Plant response rating, Pigweed: 100
[7]; [24]
  Plant response rating, Velvetleaf: 60
[7]; [12]
  Plant response rating, Velvetleaf: 60
[7]; [13]
  Plant response rating, Velvetleaf: 60
[7]; [14]
  Plant response rating, Velvetleaf: 90
[7]; [25]
  Plant response rating, Velvetleaf: 0
[7]; [16]
  Plant response rating, Velvetleaf: 0
[7]; [17]
  Plant response rating, Velvetleaf: 20
[7]; [18]
  Plant response rating, Velvetleaf: 80
[8]; [24]
  Plant response rating, Galium: 50
[8]; [12]
  Plant response rating, Galium: 55
[8]; [13]
  Plant response rating, Galium: 55
[8]; [14]
  Plant response rating, Galium: 80
[8]; [25]
  Plant response rating, Galium: 50
[8]; [16]
  Plant response rating, Galium: 75
[8]; [17]
  Plant response rating, Galium: 95
[8]; [18]
  Plant response rating, Galium: 98

— patent publication US9302999B2, “Substituted triazoles as herbicides” (E. I. DU PONT DE NEMOURS AND COMPANY, priority 2012, dated 2016)
